Measurements reported in ChEMBL document CHEMBL4715873, “A novel synthetic acanthoic acid analogues and their cytotoxic activity in cholangiocarcinoma cells” (Bioorg Med Chem, 2021).

What was measured:
[1] = Cytotoxicity against human KKU-213 cells assessed as growth inhibition incubated for 48 hrs by MTT assay; assay type: functional, cell-based, KKUM213; conditions: KKU-M213, 48 h
[2] = Cytotoxicity against human KKU-214 cells assessed as growth inhibition incubated for 48 hrs by MTT assay; assay type: functional, cell-based, KKUM214; conditions: KKU-M214, 48 h
[3] = Cytotoxicity against human KKU-100 cells assessed as growth inhibition incubated for 48 hrs by MTT assay; assay type: functional, cell-based; conditions: KKU100, 48 h
[4] = Cytotoxicity against human KKU-055 cells assessed as growth inhibition incubated for 48 hrs by MTT assay; assay type: functional, cell-based, KKUM055; conditions: KKU-M055, 48 h
[5] = Cytotoxicity against human PBMC assessed as growth inhibition incubated for 48 hrs by MTT assay
[6] = Potency index, ratio of acid IC50 to compound IC50 for cytotoxicity against human KKU-213 cells assessed as growth inhibition incubated for 48 hrs by MTT assay; assay type: functional, KKUM213

Row | SMILES | IC50 [1] | IC50 [2] | IC50 [3] | IC50 [4] | IC50 [5] | Ratio IC50 [6]
1 | C=C[C@@]1(C)CC=C2[C@@H](CC[C@@H]3[C@](C)(C(=O)OCc4cn(Cc5ccc(C)cc5)nn4)CCC[C@@]23C)C1 | 47 µM | 39 µM | > 50 µM | > 50 µM | – | –
2 | C#CCOC(=O)[C@]1(C)CCC[C@@]2(C)C3=CC[C@](C)(C=C)C[C@@H]3CC[C@H]12 | 31 µM | 34 µM | > 50 µM | 37 µM | 71 µM | –
3 | C=C[C@@]1(C)CC=C2[C@@H](CC[C@@H]3[C@](C)(C(=O)OCc4cn(Cc5ccc(Br)cc5)nn4)CCC[C@@]23C)C1 | > 50 µM | > 50 µM | > 50 µM | > 50 µM | – | –
4 | C=C[C@@]1(C)CC=C2[C@@H](CC[C@@H]3[C@](C)(C(=O)OCCCC)CCC[C@@]23C)C1 | 37 µM | > 50 µM | > 50 µM | 49 µM | – | –
5 | C=C[C@@]1(C)CC=C2[C@@H](CC[C@@H]3[C@](C)(C(=O)OCc4ccc(Br)cc4)CCC[C@@]23C)C1 | 41 µM | 41 µM | > 50 µM | > 50 µM | – | –
6 | C=C[C@@]1(C)CC=C2[C@@H](CC[C@@H]3[C@](C)(C(=O)OCc4ccc(Cl)cc4)CCC[C@@]23C)C1 | > 50 µM | > 50 µM | > 50 µM | > 50 µM | – | –
7 | C=C[C@@]1(C)CC=C2[C@@H](CC[C@@H]3[C@](C)(C(=O)OCc4ccccc4F)CCC[C@@]23C)C1 | 35 µM | > 50 µM | > 50 µM | 47 µM | – | –
8 | C=C[C@@]1(C)CC=C2[C@@H](CC[C@@H]3[C@](C)(C(=O)OCc4cn(Cc5ccc(OC)cc5)nn4)CCC[C@@]23C)C1 | > 50 µM | > 50 µM | > 50 µM | > 50 µM | – | –
9 | C=C[C@@]1(C)CC=C2[C@@H](CC[C@@H]3[C@](C)(C(=O)OCc4cn(Cc5ccccc5F)nn4)CCC[C@@]23C)C1 | > 50 µM | > 50 µM | > 50 µM | > 50 µM | – | –
10 | C=C[C@@]1(C)CC=C2[C@@H](CC[C@@H]3[C@](C)(C(=O)OCc4cn(Cc5ccc(Cl)cc5)nn4)CCC[C@@]23C)C1 | > 50 µM | 39 µM | > 50 µM | > 50 µM | – | –
11 | C=C[C@@]1(C)CC=C2[C@@H](CC[C@@H]3[C@](C)(C(=O)OCc4ccc(C)cc4)CCC[C@@]23C)C1 | > 50 µM | > 50 µM | > 50 µM | > 50 µM | – | –
12 | C=C[C@@]1(C)CC=C2[C@@H](CC[C@@H]3[C@](C)(C(=O)OCc4ccc(OC)cc4)CCC[C@@]23C)C1 | > 50 µM | > 50 µM | > 50 µM | > 50 µM | – | –
13 | C=C[C@@]1(C)CC=C2[C@@H](CC[C@@H]3[C@](C)(C(=O)OCc4ccc([N+](=O)[O-])cc4)CCC[C@@]23C)C1 | > 50 µM | > 50 µM | > 50 µM | > 50 µM | – | –
14 | C=C[C@@]1(C)CC=C2[C@@H](CC[C@@H]3[C@](C)(C(=O)OCc4ccc(F)cc4)CCC[C@@]23C)C1 | 38 µM | > 50 µM | > 50 µM | > 50 µM | – | –
15 | C=C[C@@]1(C)CC=C2[C@@H](CC[C@@H]3[C@](C)(C(=O)OCc4cn(CCCCCCCC)nn4)CCC[C@@]23C)C1 | 37 µM | 38 µM | > 50 µM | 48 µM | – | –
16 | C=CCOC(=O)[C@]1(C)CCC[C@@]2(C)C3=CC[C@](C)(C=C)C[C@@H]3CC[C@H]12 | > 50 µM | > 50 µM | > 50 µM | > 50 µM | – | –
17 | C=C[C@@]1(C)CC=C2[C@@H](CC[C@@H]3[C@](C)(C(=O)OCc4cn(Cc5cccc(F)c5)nn4)CCC[C@@]23C)C1 | > 50 µM | > 50 µM | > 50 µM | > 50 µM | – | –
18 | C=C[C@@]1(C)CC=C2[C@@H](CC[C@@H]3[C@](C)(C(=O)OCc4ccccc4)CCC[C@@]23C)C1 | > 50 µM | > 50 µM | > 50 µM | > 50 µM | – | –
19 | C=C[C@@]1(C)CC=C2[C@@H](CC[C@@H]3[C@](C)(C(=O)OCc4cccc(F)c4)CCC[C@@]23C)C1 | 28 µM | > 50 µM | > 50 µM | 41 µM | 163 µM | –
20 | C=C[C@@]1(C)CC=C2[C@@H](CC[C@@H]3[C@](C)(C(=O)OCCCCCCCC)CCC[C@@]23C)C1 | > 50 µM | > 50 µM | > 50 µM | > 50 µM | – | –
21 | C=C[C@@]1(C)CC=C2[C@@H](CC[C@@H]3[C@](C)(C(=O)OCc4cn(Cc5ccc([N+](=O)[O-])cc5)nn4)CCC[C@@]23C)C1 | 18 µM | 21 µM | > 50 µM | 33 µM | > 200 µM | 8
22 | C=C[C@@]1(C)CC=C2[C@@H](CC[C@@H]3[C@](C)(C(=O)OCc4cn(Cc5ccc(F)cc5)nn4)CCC[C@@]23C)C1 | > 50 µM | > 50 µM | > 50 µM | > 50 µM | – | –
23 | C=C[C@@]1(C)CC=C2[C@@H](CC[C@@H]3[C@](C)(C(=O)OCc4cn(Cc5ccccc5)nn4)CCC[C@@]23C)C1 | 40 µM | 41 µM | > 50 µM | 47 µM | – | –
24 | C=C[C@@]1(C)CC=C2[C@@H](CC[C@@H]3[C@](C)(C(=O)O)CCC[C@@]23C)C1 | 149 µM | 168 µM | 174 µM | 120 µM | – | –
25 | O=C(NC1=CC(=O)[C@H]2O[C@H]2[C@H]1O)c1ccccc1O [DEHYDROXYMETHYLEPOXYQUINOMICIN] | 19 µM | 19 µM | – | – | – | –
